In patent publication US7183309B2, “Indole derivatives useful as progesterone receptor modulators” (Janssen Pharmaceutica N.V., priority 2004, dated 2007):

Test system: T47D human breast cancer cells
Assay: In Vitro Testing-T47 D Assay (alkaline phosphatase assay)
Assay type: cell-based
Settings: alkaline phosphatase luminescence readout after 24 h
Experimental: In Vitro Testing-T47 D Assay
T47D human breast cancer cells are grown in RPMI medium without phenol red (Invitrogen) containing 10% (v/v) heat-inactivated fetal bovine serum (FBS; Hyclone), 1% (v/v) penicillin-streptomycin (Invitrogen), 1% (w/v) glutamine (Invitrogen), and […] (Sigma). Incubation conditions are 37° C. in a humidified 5% (v/v) carbon dioxide environment. For assay, the cells are plated in 96-well tissue culture plates at 10,000 cells per well in assay medium [RPMI medium without phenol red (Invitrogen) containing 5% (v/v) charcoal-treated FBS (Hyclone) and 1% (v/v) penicillin-streptomycin (Invitrogen)]. Two days later, the medium is decanted and the compounds are added in a final concentration of 0.1% (v/v) dimethyl sulfoxide in fresh assay medium. Twenty-four hours later, an alkaline phosphatase assay is performed using a SEAP kit (BD Biosciences Clontech, Palo Alto, Calif.). Briefly, the medium is decanted and the cells are fixed for 30 minutes at room temperature with 5% (v/v) formalin (Sigma). The cells are washed once with room temperature Hank's buffered saline solution (Invitrogen). Equal volumes (0.05 mL) of 1× Dilution Buffer, Assay Buffer and 1:20 substrate/enhancer mixture are added. After 1-hour incubation at room temperature in the dark, the lysate is transferred to a white 96-well plate (Dynex) and luminescence is read using a LuminoSkan Ascent (Thermo Electron, Woburn, Mass.).

With `CC(C)(O)c1[nH]c2cc(C(F)(F)F)c([N+](=O)[O-])cc2c1Sc1ccccc1` [Example 1, 2-(5-Nitro-3-phenylsulfanyl-6-trifluoromethyl-1H-indol-2-yl)-propan-2-ol] the inhibition at 3 µM (Homo sapiens) was 99% and the IC50 (Homo sapiens) was 0.062 µM.

`C=C(C)c1[nH]c2cc(C(F)(F)F)c([N+](=O)[O-])cc2c1Sc1ccccc1` [Example 2, 2-Isopropenyl-5-nitro-3-phenylsulfanyl-6-trifluoromethyl-1H-indole] was tested, and the IC50 (Homo sapiens, T47D, 24 h) was greater than 10 µM.

Work on `O=[N+]([O-])c1ccc(Sc2c(-c3ccccc3)[nH]c3cc(Cl)c(F)cc23)cc1` [Example 3, 6-Chloro-5-fluoro-3-(4-nitro-phenylsulfanyl)-2-phenyl-1H-indole] yielded an inhibition at 3 µM (Homo sapiens, T47D, 24 h) of 88% and an IC50 (Homo sapiens, T47D, 24 h) of 1.4 µM.

For `CC(C)(O)c1[nH]c2cc(C(F)(F)F)c(C#N)cc2c1Sc1cccc([N+](=O)[O-])c1` [Example 4, 2-(1-Hydroxy-1-methyl-ethyl)-3-(3-nitro-phenylsulfanyl)-6-trifluoromethyl-1H-indole-5-carbonitrile], the inhibition at 3 µM (Homo sapiens) was 69% and the IC50 (Homo sapiens) was 2.19 µM.

`Fc1cc2c(Sc3ccccc3)c(-c3ccccc3)[nH]c2cc1Cl` [Example 5, 6-Chloro-5-fluoro-2-phenyl-3-phenylsulfanyl-1H-indole] gave an inhibition at 3 µM (Homo sapiens, T47D, 24 h) of 103% and an IC50 (Homo sapiens, T47D, 24 h) of 1.76 µM.

`O=[N+]([O-])c1cccc(Sc2c(-c3ccccc3)[nH]c3cc(Cl)c(F)cc23)c1` [Example 6, 6-Chloro-5-fluoro-3-(3-nitro-phenylsulfanyl)-2-phenyl-1H-indole] showed an inhibition at 3 µM (Homo sapiens, T47D, 24 h) of 99% and an IC50 (Homo sapiens, T47D, 24 h) of 1.9 µM.

`O=[N+]([O-])c1cccc(S(=O)(=O)c2c(-c3ccccc3)[nH]c3cc(Cl)c(F)cc23)c1` [Example 7, 6-Chloro-5-fluoro-3-(3-nitro-benzenesulfonyl)-2-phenyl-1H-indole] was tested, and the “inh. @ 3 uM” value was 55% and the IC50 (Homo sapiens, T47D, 24 h) was 3.62 µM.

In the case of `O=[N+]([O-])c1cccc(S(=O)(=O)c2c(-c3ccccc3)[nH]c3cc(Cl)c(F)cc23)c1` [Example 8, 6-Chloro-5-fluoro-3-(3-nitro-benzenesulfonyl)-2-phenyl-1H-indole], the “inh. @ 3 uM” value is reported as 82% and the IC50 is reported as 3.18 µM.
